system: Vero; test: Cytotoxicity against African green monkey Vero cells assessed as reduction in cell viability after 3 days by hemocytometer; type: cell-based; conditions: chlorocebus sabaeus, 72 h

SMILES	CC50 [µM]
CC(C)C[C@H](NC(=O)[C@H](Cc1cccc2ccccc12)NC(=O)OCc1ccccc1)C(=O)N[C@H](C=O)C[C@@H]1CCNC1=O	> 100
CC(C)C[C@H](NC(=O)[C@H](Cc1cccc2ccccc12)NC(=O)OCc1ccccc1)C(=O)NC(C[C@@H]1CCNC1=O)C1CO1 (stereo partly drawn)	30.4
CC(C)C[C@H](NC(=O)[C@H](Cc1cccc2ccccc12)NC(=O)OCc1ccccc1)C(=O)N[C@H](CS)C[C@@H]1CCNC1=O	> 100
CC(C)C[C@H](NC(=O)[C@H](Cc1cccc2ccccc12)NC(=O)OCc1ccccc1)C(=O)NC(/C=C/C=O)C[C@@H]1CCNC1=O (stereo partly drawn)	77.7
CC(C)C[C@H](NC(=O)[C@H](Cc1cccc2ccccc12)NC(=O)OCc1ccccc1)C(=O)N[C@H](CO)CNC(=O)N1CCC1	> 100
CC(C)C[C@H](NC(=O)[C@H](Cc1cccc2ccccc12)NC(=O)OCc1ccccc1)C(=O)N[C@@H](C[C@@H]1CCCNC1=O)C(=O)C(F)(F)F	> 100
CC(C)C[C@H](NC(=O)[C@H](Cc1cccc2ccccc12)NC(=O)OCc1ccccc1)C(=O)N[C@H](/C=C(\C#N)C(N)=O)C[C@@H]1CCCNC1=O	> 100

target: Nonstructural polyprotein (Norovirus Hu/GI/10360/2010/VNM, UniProt I1U3K2); test: (§1) Inhibition of Norovirus prototypic GI.1 3CL protease using HiLyte Fluor 488-labelled DFELQGPK as substrate incubated for 90 mins measured every mins for 20 mins by FRET assay; set-up: species or system Norovirus GI.1; conditions: not given
Sequence (I1U3K2 whole entry): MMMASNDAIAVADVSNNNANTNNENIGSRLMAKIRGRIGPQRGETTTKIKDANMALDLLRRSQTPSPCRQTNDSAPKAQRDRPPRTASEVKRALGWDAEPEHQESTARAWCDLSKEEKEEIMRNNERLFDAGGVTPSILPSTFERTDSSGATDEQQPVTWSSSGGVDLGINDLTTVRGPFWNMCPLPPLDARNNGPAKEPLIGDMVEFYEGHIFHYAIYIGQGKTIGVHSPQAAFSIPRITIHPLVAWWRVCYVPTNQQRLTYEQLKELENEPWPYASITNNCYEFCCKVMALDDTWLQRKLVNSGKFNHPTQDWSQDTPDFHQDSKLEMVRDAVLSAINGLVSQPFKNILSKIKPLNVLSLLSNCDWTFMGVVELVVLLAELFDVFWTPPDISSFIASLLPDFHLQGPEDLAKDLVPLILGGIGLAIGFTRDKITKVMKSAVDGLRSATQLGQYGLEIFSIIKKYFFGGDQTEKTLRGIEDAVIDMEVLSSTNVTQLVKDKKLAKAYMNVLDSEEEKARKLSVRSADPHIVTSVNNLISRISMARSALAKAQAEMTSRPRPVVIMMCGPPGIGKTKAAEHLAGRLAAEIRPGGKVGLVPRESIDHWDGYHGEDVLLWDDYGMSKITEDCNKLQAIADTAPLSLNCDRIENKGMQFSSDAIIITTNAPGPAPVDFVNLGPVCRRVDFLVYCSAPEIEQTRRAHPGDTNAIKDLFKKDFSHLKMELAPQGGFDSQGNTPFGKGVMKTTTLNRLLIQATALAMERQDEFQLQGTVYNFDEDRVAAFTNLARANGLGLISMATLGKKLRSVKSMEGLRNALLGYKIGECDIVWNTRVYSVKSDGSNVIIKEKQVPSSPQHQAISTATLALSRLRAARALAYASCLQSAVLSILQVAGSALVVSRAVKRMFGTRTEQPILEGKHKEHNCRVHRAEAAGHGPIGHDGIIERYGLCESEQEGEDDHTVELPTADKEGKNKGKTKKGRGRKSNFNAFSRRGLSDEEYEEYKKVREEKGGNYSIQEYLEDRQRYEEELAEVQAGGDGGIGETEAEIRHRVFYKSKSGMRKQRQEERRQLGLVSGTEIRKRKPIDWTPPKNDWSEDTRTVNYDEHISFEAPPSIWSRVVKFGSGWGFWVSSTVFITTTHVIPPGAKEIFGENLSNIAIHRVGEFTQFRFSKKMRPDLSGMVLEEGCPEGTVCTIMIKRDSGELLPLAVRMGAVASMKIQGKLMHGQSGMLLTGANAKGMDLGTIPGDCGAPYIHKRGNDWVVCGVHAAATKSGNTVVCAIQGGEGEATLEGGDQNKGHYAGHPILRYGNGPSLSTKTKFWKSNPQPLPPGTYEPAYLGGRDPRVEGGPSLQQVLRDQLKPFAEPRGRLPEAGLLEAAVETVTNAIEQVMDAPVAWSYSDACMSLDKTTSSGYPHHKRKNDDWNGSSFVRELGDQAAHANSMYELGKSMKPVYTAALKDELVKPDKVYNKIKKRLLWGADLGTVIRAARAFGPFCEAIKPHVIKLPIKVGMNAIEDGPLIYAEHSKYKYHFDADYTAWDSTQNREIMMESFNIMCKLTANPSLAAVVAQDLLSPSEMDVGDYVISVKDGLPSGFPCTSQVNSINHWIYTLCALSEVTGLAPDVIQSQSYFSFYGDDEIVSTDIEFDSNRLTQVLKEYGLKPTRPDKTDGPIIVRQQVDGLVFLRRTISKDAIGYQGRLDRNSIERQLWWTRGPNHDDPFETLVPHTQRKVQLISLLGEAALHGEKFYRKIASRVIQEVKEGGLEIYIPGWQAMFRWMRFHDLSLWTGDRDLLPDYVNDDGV

SMILES	IC50 [µM]
CC(C)C[C@H](NC(=O)[C@H](Cc1cccc2ccccc12)NC(=O)OCc1ccccc1)C(=O)N[C@H](C=O)C[C@@H]1CCNC1=O	0.032
CC(C)C[C@H](NC(=O)[C@H](Cc1cccc2ccccc12)NC(=O)OCc1ccccc1)C(=O)NC(C[C@@H]1CCNC1=O)C1CO1 (stereo partly drawn)	> 100
CC(C)C[C@H](NC(=O)[C@H](Cc1cccc2ccccc12)NC(=O)OCc1ccccc1)C(=O)N[C@H](CS)C[C@@H]1CCNC1=O	> 10
CC(C)C[C@H](NC(=O)[C@H](Cc1cccc2ccccc12)NC(=O)OCc1ccccc1)C(=O)NC(/C=C/C=O)C[C@@H]1CCNC1=O (stereo partly drawn)	> 10
CC(C)C[C@H](NC(=O)[C@H](Cc1cccc2ccccc12)NC(=O)OCc1ccccc1)C(=O)N[C@H](CO)CNC(=O)N1CCC1	> 100
CC(C)C[C@H](NC(=O)[C@H](Cc1cccc2ccccc12)NC(=O)OCc1ccccc1)C(=O)N[C@@H](C[C@@H]1CCCNC1=O)C(=O)C(F)(F)F	0.654
CC(C)C[C@H](NC(=O)[C@H](Cc1cccc2ccccc12)NC(=O)OCc1ccccc1)C(=O)N[C@H](/C=C(\C#N)C(N)=O)C[C@@H]1CCCNC1=O	0.593

target: Nonstructural polyprotein (Norovirus Hu/GI/10360/2010/VNM) (UniProt I1U3K2); test: as §1; conditions: Norovirus GI.1
Sequence (I1U3K2 as listed by the source): as the sequence (I1U3K2 whole entry) above

SMILES	IC90 [µM]
CC(C)C[C@H](NC(=O)[C@H](Cc1cccc2ccccc12)NC(=O)OCc1ccccc1)C(=O)N[C@H](C=O)C[C@@H]1CCNC1=O	0.248
CC(C)C[C@H](NC(=O)[C@H](Cc1cccc2ccccc12)NC(=O)OCc1ccccc1)C(=O)N[C@@H](C[C@@H]1CCCNC1=O)C(=O)C(F)(F)F	2.24
CC(C)C[C@H](NC(=O)[C@H](Cc1cccc2ccccc12)NC(=O)OCc1ccccc1)C(=O)N[C@H](/C=C(\C#N)C(N)=O)C[C@@H]1CCCNC1=O	1.7

target: T1, Protease (Norovirus Hu/GII.4-2002/WeertE022/2002/NL) (UniProt G1FEK8); test: (§2) Inhibition of Norovirus prototypic GII.4 3CL protease using HiLyte Fluor 488-labelled DFELQGPK as substrate incubated for 90 mins measured every mins for 20 mins by FRET assay; conditions: Norovirus GII.4
T1 sequence (whole entry): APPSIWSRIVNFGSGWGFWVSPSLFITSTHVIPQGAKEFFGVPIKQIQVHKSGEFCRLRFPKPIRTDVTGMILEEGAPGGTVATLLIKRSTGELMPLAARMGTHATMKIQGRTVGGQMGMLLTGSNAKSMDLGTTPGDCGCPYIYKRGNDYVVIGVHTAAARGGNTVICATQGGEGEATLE

SMILES	IC90 [µM]
CC(C)C[C@H](NC(=O)[C@H](Cc1cccc2ccccc12)NC(=O)OCc1ccccc1)C(=O)N[C@H](C=O)C[C@@H]1CCNC1=O	0.205
CC(C)C[C@H](NC(=O)[C@H](Cc1cccc2ccccc12)NC(=O)OCc1ccccc1)C(=O)N[C@@H](C[C@@H]1CCCNC1=O)C(=O)C(F)(F)F	14
CC(C)C[C@H](NC(=O)[C@H](Cc1cccc2ccccc12)NC(=O)OCc1ccccc1)C(=O)N[C@H](/C=C(\C#N)C(N)=O)C[C@@H]1CCCNC1=O	3.6

target: T2, Protease (Norovirus Hu/GII.4-2002/WeertE022/2002/NL, UniProt G1FEK8); test: as §2; set-up: species or system Norovirus GII.4; conditions: not given
T2 sequence (G1FEK8 whole entry): T1 sequence (whole entry)

SMILES	IC50 [µM]
CC(C)C[C@H](NC(=O)[C@H](Cc1cccc2ccccc12)NC(=O)OCc1ccccc1)C(=O)N[C@H](C=O)C[C@@H]1CCNC1=O	0.06
CC(C)C[C@H](NC(=O)[C@H](Cc1cccc2ccccc12)NC(=O)OCc1ccccc1)C(=O)NC(C[C@@H]1CCNC1=O)C1CO1 (stereo partly drawn)	> 100
CC(C)C[C@H](NC(=O)[C@H](Cc1cccc2ccccc12)NC(=O)OCc1ccccc1)C(=O)N[C@H](CS)C[C@@H]1CCNC1=O	> 10
CC(C)C[C@H](NC(=O)[C@H](Cc1cccc2ccccc12)NC(=O)OCc1ccccc1)C(=O)NC(/C=C/C=O)C[C@@H]1CCNC1=O (stereo partly drawn)	> 100
CC(C)C[C@H](NC(=O)[C@H](Cc1cccc2ccccc12)NC(=O)OCc1ccccc1)C(=O)N[C@H](CO)CNC(=O)N1CCC1	> 100
CC(C)C[C@H](NC(=O)[C@H](Cc1cccc2ccccc12)NC(=O)OCc1ccccc1)C(=O)N[C@@H](C[C@@H]1CCCNC1=O)C(=O)C(F)(F)F	2.63
CC(C)C[C@H](NC(=O)[C@H](Cc1cccc2ccccc12)NC(=O)OCc1ccccc1)C(=O)N[C@H](/C=C(\C#N)C(N)=O)C[C@@H]1CCCNC1=O	1.17

system: CCRF-CEM; test: Cytotoxicity against human CEM cells assessed as reduction in cell viability after 6 days by trypan blue exclusion assay; type: cell-based; conditions: 144 h

SMILES	CC50 [µM]
CC(C)C[C@H](NC(=O)[C@H](Cc1cccc2ccccc12)NC(=O)OCc1ccccc1)C(=O)N[C@H](C=O)C[C@@H]1CCNC1=O	39.5
CC(C)C[C@H](NC(=O)[C@H](Cc1cccc2ccccc12)NC(=O)OCc1ccccc1)C(=O)NC(C[C@@H]1CCNC1=O)C1CO1 (stereo partly drawn)	14
CC(C)C[C@H](NC(=O)[C@H](Cc1cccc2ccccc12)NC(=O)OCc1ccccc1)C(=O)N[C@H](CS)C[C@@H]1CCNC1=O	> 100
CC(C)C[C@H](NC(=O)[C@H](Cc1cccc2ccccc12)NC(=O)OCc1ccccc1)C(=O)NC(/C=C/C=O)C[C@@H]1CCNC1=O (stereo partly drawn)	1.9
CC(C)C[C@H](NC(=O)[C@H](Cc1cccc2ccccc12)NC(=O)OCc1ccccc1)C(=O)N[C@H](CO)CNC(=O)N1CCC1	2.2
CC(C)C[C@H](NC(=O)[C@H](Cc1cccc2ccccc12)NC(=O)OCc1ccccc1)C(=O)N[C@@H](C[C@@H]1CCCNC1=O)C(=O)C(F)(F)F	18.3
CC(C)C[C@H](NC(=O)[C@H](Cc1cccc2ccccc12)NC(=O)OCc1ccccc1)C(=O)N[C@H](/C=C(\C#N)C(N)=O)C[C@@H]1CCCNC1=O	9.1

system: Norovirus; test: Antiviral activity against Norovirus prototypic GI.1 infected in human HG23 cells assessed as inhibition of viral RNA replication after 4 days by RT-qPCR method; type: functional, organism-based, Norovirus GI.1; conditions: Norovirus, HG23, 96 h

SMILES	EC90 [µM]
CC(C)C[C@H](NC(=O)[C@H](Cc1cccc2ccccc12)NC(=O)OCc1ccccc1)C(=O)N[C@H](C=O)C[C@@H]1CCNC1=O	8.36
CC(C)C[C@H](NC(=O)[C@H](Cc1cccc2ccccc12)NC(=O)OCc1ccccc1)C(=O)NC(/C=C/C=O)C[C@@H]1CCNC1=O (stereo partly drawn)	> 10
CC(C)C[C@H](NC(=O)[C@H](Cc1cccc2ccccc12)NC(=O)OCc1ccccc1)C(=O)N[C@@H](C[C@@H]1CCCNC1=O)C(=O)C(F)(F)F	2.45
CC(C)C[C@H](NC(=O)[C@H](Cc1cccc2ccccc12)NC(=O)OCc1ccccc1)C(=O)N[C@H](/C=C(\C#N)C(N)=O)C[C@@H]1CCCNC1=O	7.82

same assay, conditions: Norovirus, HG23, 96 h; read-out: EC50

SMILES	EC50 [µM]
CC(C)C[C@H](NC(=O)[C@H](Cc1cccc2ccccc12)NC(=O)OCc1ccccc1)C(=O)N[C@H](C=O)C[C@@H]1CCNC1=O	1.13
CC(C)C[C@H](NC(=O)[C@H](Cc1cccc2ccccc12)NC(=O)OCc1ccccc1)C(=O)NC(C[C@@H]1CCNC1=O)C1CO1 (stereo partly drawn)	> 10
CC(C)C[C@H](NC(=O)[C@H](Cc1cccc2ccccc12)NC(=O)OCc1ccccc1)C(=O)N[C@H](CS)C[C@@H]1CCNC1=O	> 10
CC(C)C[C@H](NC(=O)[C@H](Cc1cccc2ccccc12)NC(=O)OCc1ccccc1)C(=O)NC(/C=C/C=O)C[C@@H]1CCNC1=O (stereo partly drawn)	4.7
CC(C)C[C@H](NC(=O)[C@H](Cc1cccc2ccccc12)NC(=O)OCc1ccccc1)C(=O)N[C@H](CO)CNC(=O)N1CCC1	> 10
CC(C)C[C@H](NC(=O)[C@H](Cc1cccc2ccccc12)NC(=O)OCc1ccccc1)C(=O)N[C@@H](C[C@@H]1CCCNC1=O)C(=O)C(F)(F)F	0.39
CC(C)C[C@H](NC(=O)[C@H](Cc1cccc2ccccc12)NC(=O)OCc1ccccc1)C(=O)N[C@H](/C=C(\C#N)C(N)=O)C[C@@H]1CCCNC1=O	0.75

target: T1, Protease (Norovirus Hu/GII.4-2002/WeertE022/2002/NL); test: Inhibition of Norovirus prototypic GII.4 3CL protease using HiLyte Fluor 488-labelled DFELQGPK as substrate incubated for 90 mins measured every mins for 20 mins by FRET assay relative to control; conditions: Norovirus GII.4

SMILES	inhibition [%]
CC(C)C[C@H](NC(=O)[C@H](Cc1cccc2ccccc12)NC(=O)OCc1ccccc1)C(=O)N[C@H](CO)CNC(=O)N1CCC1	4

system: PBMC; test: Cytotoxicity against human PBMC assessed as reduction in cell viability after 6 days by trypan blue exclusion assay; type: cell-based; conditions: 144 h

SMILES	CC50 [µM]
CC(C)C[C@H](NC(=O)[C@H](Cc1cccc2ccccc12)NC(=O)OCc1ccccc1)C(=O)N[C@H](C=O)C[C@@H]1CCNC1=O	28.4
CC(C)C[C@H](NC(=O)[C@H](Cc1cccc2ccccc12)NC(=O)OCc1ccccc1)C(=O)NC(C[C@@H]1CCNC1=O)C1CO1 (stereo partly drawn)	15.7
CC(C)C[C@H](NC(=O)[C@H](Cc1cccc2ccccc12)NC(=O)OCc1ccccc1)C(=O)N[C@H](CS)C[C@@H]1CCNC1=O	> 100
CC(C)C[C@H](NC(=O)[C@H](Cc1cccc2ccccc12)NC(=O)OCc1ccccc1)C(=O)NC(/C=C/C=O)C[C@@H]1CCNC1=O (stereo partly drawn)	3.9
CC(C)C[C@H](NC(=O)[C@H](Cc1cccc2ccccc12)NC(=O)OCc1ccccc1)C(=O)N[C@H](CO)CNC(=O)N1CCC1	21.2
CC(C)C[C@H](NC(=O)[C@H](Cc1cccc2ccccc12)NC(=O)OCc1ccccc1)C(=O)N[C@@H](C[C@@H]1CCCNC1=O)C(=O)C(F)(F)F	43.8
CC(C)C[C@H](NC(=O)[C@H](Cc1cccc2ccccc12)NC(=O)OCc1ccccc1)C(=O)N[C@H](/C=C(\C#N)C(N)=O)C[C@@H]1CCCNC1=O	45.4

system: Huh-7; test: Cytotoxicity against human HuH7 cells assessed as reduction in cell viability; type: cell-based; conditions: not given

SMILES	CC50 [µM]
CC(C)C[C@H](NC(=O)[C@H](Cc1cccc2ccccc12)NC(=O)OCc1ccccc1)C(=O)N[C@H](C=O)C[C@@H]1CCNC1=O	> 10
CC(C)C[C@H](NC(=O)[C@H](Cc1cccc2ccccc12)NC(=O)OCc1ccccc1)C(=O)N[C@H](CS)C[C@@H]1CCNC1=O	93.5
CC(C)C[C@H](NC(=O)[C@H](Cc1cccc2ccccc12)NC(=O)OCc1ccccc1)C(=O)N[C@H](CO)CNC(=O)N1CCC1	33
CC(C)C[C@H](NC(=O)[C@H](Cc1cccc2ccccc12)NC(=O)OCc1ccccc1)C(=O)N[C@@H](C[C@@H]1CCCNC1=O)C(=O)C(F)(F)F	11.2
CC(C)C[C@H](NC(=O)[C@H](Cc1cccc2ccccc12)NC(=O)OCc1ccccc1)C(=O)N[C@H](/C=C(\C#N)C(N)=O)C[C@@H]1CCCNC1=O	8.4
